ChEMBL document CHEMBL1147588, “Synthesis and in vitro cytotoxicity of 5-substituted 2-cyanoimino-4-imidazodinone and 2-cyanoimino-4-pyrimidinone derivatives” (Bioorg Med Chem Lett, 2004)

Columns and labels:
MCF7 [1] = experiment: Cytotoxic activity against MCF breast cancer cell line; format: functional, cell-based; details: Homo sapiens
HA22T cell line [2] = experiment: Cytotoxic activity against HA22T liver cancer cell line; format: functional, cell-based; details: Homo sapiens
NUGC = experiment: Cytotoxic activity against NUGC gastric cancer cell line; format: functional, cell-based; details: Homo sapiens, Stomach
DLD-1 = experiment: Cytotoxic activity against DLD1 colon cancer cell line; format: functional, cell-based; details: Homo sapiens
HepG2 = experiment: Cytotoxic activity against HepG2 liver cancer cell line; format: functional, cell-based; details: Homo sapiens
WI-38 = experiment: Cytotoxic activity against WI38 normal fibroblast cell line; na=Not active; format: functional, cell-based, Homo sapiens
HONE1 cell line = experiment: Cytotoxic activity against HONE1 nasopharyngeal carcinoma cell line; format: functional, cell-based; details: Homo sapiens
HA22T cell line [3] = experiment: Cytotoxic activity against HA22T liver cancer cell line; na=Not active; format: functional, cell-based, Homo sapiens
MCF7 [4] = experiment: Cytotoxic activity against MCF breast cancer cell line; na=Not active; format: functional, cell-based, Homo sapiens

| SMILES | IC50 (MCF7 [1]) [nM] | IC50 (HA22T cell line [2]) [nM] | IC50 (NUGC) [nM] | IC50 (DLD-1) [nM] | IC50 (HepG2) [nM] | IC50 (WI-38) | IC50 (HONE1 cell line) [nM] | IC50 (HA22T cell line [3]) | IC50 (MCF7 [4]) |
| --- | --- | --- | --- | --- | --- | --- | --- | --- | --- |
| N#C/N=C1\N(CCCCCCCOc2ccc(Cl)cc2)C(=O)C(c2ccccc2)N1c1ccncc1 (configuration not stated) | 1170 | 831 | 3350 | 290 | 380 | Not Active | 398 | – | – |
| N#C/N=C1\N(CCCCCCOc2ccc(Cl)cc2)C(=O)C(c2ccccc2)N1c1ccncc1 (configuration not stated) | 1130 | 526 | 3340 | 37 | 44 | Not Active | 337 | – | – |
| CC1C(=O)N(CCCCCCOc2ccc(Cl)cc2)/C(=N\C#N)N1c1ccncc1 (configuration not stated) | 270 | 382 | 214 | 333 | 282 | Not Active | 303 | – | – |
| CCC1C(=O)N(CCCCCCOc2ccc(Cl)cc2)/C(=N\C#N)N1c1ccncc1 (configuration not stated) | 6910 | 5130 | 406 | 3560 | 4350 | Not Active | 3870 | – | – |
| CC1C(=O)N(CCCCCOc2ccc(Cl)cc2)/C(=N\C#N)N1c1ccncc1 (configuration not stated) | 9260 | – | 1780 | 4110 | 4090 | Not Active | 3680 | Not Active | – |
| N#C/N=C1\N(CCCCCOc2ccc(Cl)cc2)C(=O)CCN1c1ccncc1 | 5460 | – | 3120 | 6740 | 2830 | Not Active | 3450 | Not Active | – |
| N#C/N=C1\N(CCCCCOc2ccc(Cl)cc2)C(=O)C(c2ccccc2)N1c1ccncc1 (configuration not stated) | 1000 | 3590 | 3450 | 337 | 415 | Not Active | 373 | – | – |
| CC1C(=O)N(CCCCCCCOc2ccc(Cl)cc2)/C(=N\C#N)N1c1ccncc1 (configuration not stated) | 460 | 688 | 1240 | 370 | 359 | Not Active | 371 | – | – |
| N#C/N=C1\N(CCCCCCCOc2ccc(Cl)cc2)C(=O)CN1c1ccncc1 | 815 | 3500 | 926 | 3340 | 2740 | Not Active | 3240 | – | – |
| N#C/N=C1\N(CCCCCCOc2ccc(Cl)cc2)C(=O)CCN1c1ccncc1 | 454 | 3040 | 288 | 565 | 344 | Not Active | 577 | – | – |
| N#C/N=C1\N(CCCCCCOc2ccc(Cl)cc2)C(=O)CN1c1ccncc1 | 443 | 3860 | 386 | 3440 | 392 | Not Active | 2960 | – | – |
| N#C/N=C1\N(CCCCCCCOc2ccc(Cl)cc2)C(=O)CCN1c1ccncc1 | 6840 | 7560 | 1100 | 3200 | 4000 | Not Active | 3440 | – | – |
| N#C/N=C1\N(CCCCCOc2ccc(Cl)cc2)C(=O)CN1c1ccncc1 | 5360 | 8970 | 2760 | 3800 | 4200 | Not Active | 3400 | – | – |
| CCC1C(=O)N(CCCCCCCOc2ccc(Cl)cc2)/C(=N\C#N)N1c1ccncc1 (configuration not stated) | 4540 | 6050 | 1280 | 3530 | 3450 | Not Active | 3230 | – | – |
| CCC1C(=O)N(CCCCCOc2ccc(Cl)cc2)/C(=N\C#N)N1c1ccncc1 (configuration not stated) | – | – | 3040 | 4080 | 4320 | Not Active | 4830 | Not Active | Not Active |
| N#CN=C(NCCCCCCOc1ccc(Cl)cc1)Nc1ccncc1 [CHS-828] | 18 | 2070 | 25 | 2320 | 1240 | Not Active | 15 | – | – |
